Measurements: ChEMBL document CHEMBL4406824, “Phenolic N-monosubstituted carbamates: Antitubercular and toxicity evaluation of multi-targeting compounds” (Eur J Med Chem, 2019)
In brackets after ≈: the same amount, converted by molar mass.

What was measured:
Mycobacterium avium [1] = assay: Antimycobacterial activity against Mycobacterium avium 330/88 after 14 days; assay type: functional; settings: 330/88, 336 h
[2] = tested on: Mycobacterium tuberculosis; assay type: functional; settings: H37Rv 331/88, 504 h
[3] = tested on: Mycobacterium tuberculosis; assay type: functional; settings: H37Rv 331/88, 336 h
Mycobacterium avium [4] = assay: Antimycobacterial activity against Mycobacterium avium 330/88 after 21 days; assay type: functional; settings: 330/88, 504 h
Mycobacterium kansasii [5] = assay: Antimycobacterial activity against Mycobacterium kansasii 235/80 after 7 days; assay type: functional; settings: 235/80, 168 h
Mycobacterium kansasii [6] = assay: Antimycobacterial activity against Mycobacterium kansasii 235/80 after 14 days; assay type: functional; settings: 235/80, 336 h
Mycobacterium kansasii [7] = assay: Antimycobacterial activity against Mycobacterium kansasii 235/80 after 21 days; assay type: functional; settings: 235/80, 504 h
Mycobacterium kansasii [8] = assay: Antimycobacterial activity against Mycobacterium kansasii 6509/96 after 7 days; assay type: functional; settings: 6509/96, 168 h
Mycobacterium kansasii [9] = assay: Antimycobacterial activity against Mycobacterium kansasii 6509/96 after 14 days; assay type: functional; settings: 6509/96, 336 h
Mycobacterium kansasii [10] = assay: Antimycobacterial activity against Mycobacterium kansasii 6509/96 after 21 days; assay type: functional; settings: 6509/96, 504 h
[11] = tested on: Mycobacterium tuberculosis; assay type: functional, H37Rv 331/88; parameters: reference not given here
Mycobacterium kansasii [12] = assay: Potency index, ratio of p-aminosalicylic acid MIC to compound MIC for antimycobacterial activity against Mycobacterium kansasii 235/80; assay type: functional
Mycobacterium kansasii [13] = assay: Potency index, ratio of p-aminosalicylic acid MIC to compound MIC for antimycobacterial activity against Mycobacterium kansasii 6509/96; assay type: functional
[14] = tested on: Mycobacterium tuberculosis; assay: Antimycobacterial activity against Mycobacterium tuberculosis H37Ra ITM-M006710 after 48 hr by resazurin dye based microdilution method; assay type: functional; settings: H37Ra ITM-M006710, 48 h
Mycolicibacterium aurum = assay: Antimycobacterial activity against Mycobacterium aurum DSM 43999 after 72 hr by resazurin dye based microdilution method; assay type: functional; settings: DSM 43999, 72 h
[15] = tested on: Mycolicibacterium smegmatis; assay: Antimycobacterial activity against Mycobacterium smegmatis DSM 43465 after 120 hr by resazurin dye based microdilution method; assay type: functional; settings: DSM 43465, 120 h
[16] = tested on: Mycobacterium tuberculosis H37Rv; assay: Inhibition of recombinant Mycobacterium tuberculosis H37Rv ICL1 expressed in Escherichia coli BL21 (DE3) cells at 10 uM using (+)-potassium Ds-threo-isocitrate as substrate by glyoxylate phenyl hydrazone formation assay relative to control
HepG2 [17] = assay: Cytotoxicity against human HepG2 cells assessed as reduction in cell viability after overnight incubation by MTT assay; assay type: cell-based
HepG2 [18] = assay: Cytostatic activity against human HepG2 cells preincubated for overnight in serum free medium followed by compound wash out and further incubated for 72 hrs in presence of serum by MTT assay; assay type: ADME, cell-based
[19] = tested on: Mycobacterium tuberculosis; assay: Antimycobacterial activity against XDR Mycobacterium tuberculosis Praha 131 after 14 days; assay type: functional; settings: Praha 131, 336 h
[20] = tested on: Mycobacterium tuberculosis; assay: Antimycobacterial activity against XDR Mycobacterium tuberculosis Praha 131 after 21 days; assay type: functional; settings: Praha 131, 504 h
in vitro = settings: human, HepG2 cells
Description: Selectivity index, ratio of IC50 for human HepG2 cells to MIC for antimycobacterial activity against Mycobacterium tuberculosis H37Rv

Row | SMILES | MIC (Mycobacterium avium [1]) [µM] | MIC [2] [µM] | MIC [3] [µM] | MIC (Mycobacterium avium [4]) [µM] | MIC (Mycobacterium kansasii [5]) [µM] | MIC (Mycobacterium kansasii [6]) [µM] | MIC (Mycobacterium kansasii [7]) [µM] | MIC (Mycobacterium kansasii [8]) [µM] | MIC (Mycobacterium kansasii [9]) [µM] | MIC (Mycobacterium kansasii [10]) [µM] | Ratio [11] | Ratio (Mycobacterium kansasii [12]) | Ratio (Mycobacterium kansasii [13]) | MIC [14] | MIC (Mycolicibacterium aurum) | MIC [15] | inhibition [16] [%] | IC50 (HepG2 [17]) [µM] | IC50 (HepG2 [18]) [µM] | selectivity ratio (in vitro) | further results
1 | O=C(Nc1ccccc1)Oc1ccc(Cl)cc1C(=O)Nc1ccc(C(F)(F)F)cc1 | 8 (≈ 3.48 µg/mL) | 1 (≈ 0.435 µg/mL) | ≤ 0.5 | 8 (≈ 3.48 µg/mL) | 4 (≈ 1.74 µg/mL) | 4 (≈ 1.74 µg/mL) | 4 (≈ 1.74 µg/mL) | 2 (≈ 0.87 µg/mL) | 4 (≈ 1.74 µg/mL) | 4 (≈ 1.74 µg/mL) | >125 | >250 | >250 | ≤ 0.9 µM | ≤ 0.9 µM | ≤ 0.9 µM | 13 | 9.8 | 2.45 | 9.8 to 19.6 | MIC [19]: 1 µM (≈ 0.435 µg/mL); MIC [20]: 1 µM (≈ 0.435 µg/mL)
2 | O=C(NCCc1ccccc1)Oc1ccc(Cl)cc1C(=O)Nc1ccc(C(F)(F)F)cc1 | 8 (≈ 3.7 µg/mL) | 1 (≈ 0.463 µg/mL) | ≤ 0.5 | 8 (≈ 3.7 µg/mL) | 4 (≈ 1.85 µg/mL) | 4 (≈ 1.85 µg/mL) | 8 (≈ 3.7 µg/mL) | 2 (≈ 0.926 µg/mL) | 4 (≈ 1.85 µg/mL) | 4 (≈ 1.85 µg/mL) | >125 | >250 | >250 | 0.84 to 1.69 µM | ≤ 0.84 µM | ≤ 0.84 µM | 11 | > 125 | 1 | > 125 | MIC [19]: 2 µM (≈ 0.926 µg/mL); MIC [20]: 2 µM (≈ 0.926 µg/mL)
3 | O=C(NC12CC3CC(CC(C3)C1)C2)Oc1ccc(Cl)cc1C(=O)Nc1ccc(F)cc1 | 32 (≈ 14.2 µg/mL) | 4 (≈ 1.77 µg/mL) | 4 (≈ 1.77 µg/mL) | 32 (≈ 14.2 µg/mL) | 8 (≈ 3.54 µg/mL) | 8 (≈ 3.54 µg/mL) | 16 (≈ 7.09 µg/mL) | 8 (≈ 3.54 µg/mL) | 8 (≈ 3.54 µg/mL) | 16 (≈ 7.09 µg/mL) | >125 | >250 | >250 | 2.24 µM | 1.98 µg/mL | 1.98 µg/mL | 14 | > 125 | > 125 | 31.3 | 
4 | O=C(NC1CCCCC1)Oc1ccc(Cl)cc1C(=O)Nc1ccc(Cl)cc1 | 16 (≈ 6.52 µg/mL) | 16 (≈ 6.52 µg/mL) | 16 (≈ 6.52 µg/mL) | 16 (≈ 6.52 µg/mL) | 16 (≈ 6.52 µg/mL) | 32 (≈ 13 µg/mL) | 32 (≈ 13 µg/mL) | 8 (≈ 3.26 µg/mL) | 8 (≈ 3.26 µg/mL) | 8 (≈ 3.26 µg/mL) | >125 | >250 | >250 | 3.12 µg/mL | 1.56 µg/mL | 1.56 µg/mL | 13 | > 250 | 33.6 | > 15.6 | 
5 | O=C(Nc1ccccc1)Oc1ccc(Cl)cc1C(=O)Nc1ccc(Br)cc1 | 8 (≈ 3.57 µg/mL) | 16 (≈ 7.13 µg/mL) | 8 (≈ 3.57 µg/mL) | 16 (≈ 7.13 µg/mL) | 4 (≈ 1.78 µg/mL) | 8 (≈ 3.57 µg/mL) | 8 (≈ 3.57 µg/mL) | 4 (≈ 1.78 µg/mL) | 8 (≈ 3.57 µg/mL) | 8 (≈ 3.57 µg/mL) | >125 | >250 | >250 | 1.56 µg/mL | 1.56 µg/mL | 1.56 µg/mL | 17 | > 50 | 5.45 | > 6.3 | 
6 | O=C(NCCc1ccccc1)Oc1ccc(Cl)cc1C(=O)Nc1ccc(Br)cc1 | 8 (≈ 3.79 µg/mL) | 8 (≈ 3.79 µg/mL) | 8 (≈ 3.79 µg/mL) | 8 (≈ 3.79 µg/mL) | 4 (≈ 1.9 µg/mL) | 8 (≈ 3.79 µg/mL) | 8 (≈ 3.79 µg/mL) | 4 (≈ 1.9 µg/mL) | 8 (≈ 3.79 µg/mL) | 8 (≈ 3.79 µg/mL) | >125 | >250 | >250 | 1.65 µM | 1.56 µg/mL | 3.12 µg/mL | 17 | > 50 | 2.2 | > 6.3 | 
7 | O=C(NCc1ccccc1)Oc1ccc(Cl)cc1C(=O)Nc1ccc(C(F)(F)F)cc1 | 32 (≈ 14.4 µg/mL) | 4 (≈ 1.8 µg/mL) | 2 (≈ 0.898 µg/mL) | 32 (≈ 14.4 µg/mL) | 8 (≈ 3.59 µg/mL) | 16 (≈ 7.18 µg/mL) | 16 (≈ 7.18 µg/mL) | 8 (≈ 3.59 µg/mL) | 16 (≈ 7.18 µg/mL) | 16 (≈ 7.18 µg/mL) | >125 | >250 | >250 | ≤ 0.87 µM | ≤ 0.87 µM | 1.74 µM | 14 | > 125 | 3 | > 31.3 | 
8 | O=C(NC1CCCCC1)Oc1ccc(Cl)cc1C(=O)Nc1ccc(Br)cc1 | 8 (≈ 3.61 µg/mL) | 16 (≈ 7.23 µg/mL) | 8 (≈ 3.61 µg/mL) | 16 (≈ 7.23 µg/mL) | 4 (≈ 1.81 µg/mL) | 8 (≈ 3.61 µg/mL) | 8 (≈ 3.61 µg/mL) | 4 (≈ 1.81 µg/mL) | 8 (≈ 3.61 µg/mL) | 8 (≈ 3.61 µg/mL) | >125 | >250 | >250 | 1.56 µg/mL | 1.56 µg/mL | 1.56 µg/mL | 16 | > 50 | 9.4 | > 6.3 | 
9 | O=C(NCc1ccccc1)Oc1ccc(Cl)cc1C(=O)Nc1ccc(Br)cc1 | 8 (≈ 3.68 µg/mL) | 16 (≈ 7.36 µg/mL) | 16 (≈ 7.36 µg/mL) | 16 (≈ 7.36 µg/mL) | 4 (≈ 1.84 µg/mL) | 8 (≈ 3.68 µg/mL) | 8 (≈ 3.68 µg/mL) | 4 (≈ 1.84 µg/mL) | 8 (≈ 3.68 µg/mL) | 8 (≈ 3.68 µg/mL) | >125 | >250 | >250 | 3.91 µg/mL | 1.98 µg/mL | 1.98 µg/mL | 17 | > 50 | 1.65 | > 3.1 | 
10 | O=C(NC12CC3CC(CC(C3)C1)C2)Oc1ccc(Cl)cc1C(=O)Nc1ccc(Cl)cc1 | 16 (≈ 7.35 µg/mL) | 16 (≈ 7.35 µg/mL) | 16 (≈ 7.35 µg/mL) | 16 (≈ 7.35 µg/mL) | 8 (≈ 3.67 µg/mL) | 16 (≈ 7.35 µg/mL) | 16 (≈ 7.35 µg/mL) | 8 (≈ 3.67 µg/mL) | 16 (≈ 7.35 µg/mL) | 16 (≈ 7.35 µg/mL) | >125 | >250 | >250 | 3.12 µg/mL | 3.91 µg/mL | 3.91 µg/mL | 11 | 24 | 8.15 | 1.5 | 
11 | O=C(Nc1ccccc1)Oc1ccc(Cl)cc1C(=O)Nc1ccc(Cl)cc1 | 16 (≈ 6.42 µg/mL) | 16 (≈ 6.42 µg/mL) | 16 (≈ 6.42 µg/mL) | 16 (≈ 6.42 µg/mL) | 16 (≈ 6.42 µg/mL) | 32 (≈ 12.8 µg/mL) | 32 (≈ 12.8 µg/mL) | 8 (≈ 3.21 µg/mL) | 16 (≈ 6.42 µg/mL) | 16 (≈ 6.42 µg/mL) | >125 | >250 | >250 | 1.56 µg/mL | 1.56 µg/mL | 1.56 µg/mL | 10 | > 250 | 0.9 | > 15.6 | 
12 | O=C(NCCc1ccccc1)Oc1ccc(Cl)cc1C(=O)Nc1ccc(Cl)cc1 | 8 (≈ 3.43 µg/mL) | 16 (≈ 6.87 µg/mL) | 8 (≈ 3.43 µg/mL) | 8 (≈ 3.43 µg/mL) | 8 (≈ 3.43 µg/mL) | 8 (≈ 3.43 µg/mL) | 16 (≈ 6.87 µg/mL) | 4 (≈ 1.72 µg/mL) | 8 (≈ 3.43 µg/mL) | 8 (≈ 3.43 µg/mL) | >125 | >250 | >250 | 1.56 µg/mL | 1.56 µg/mL | 1.56 µg/mL | 10 | 15 | 5.1 | 1.9 | 
13 | O=C(NC1CCCCC1)Oc1ccc(Cl)cc1C(=O)Nc1ccc(F)cc1 | 32 (≈ 12.5 µg/mL) | 8 (≈ 3.13 µg/mL) | 4 (≈ 1.56 µg/mL) | 32 (≈ 12.5 µg/mL) | 16 (≈ 6.25 µg/mL) | 32 (≈ 12.5 µg/mL) | 32 (≈ 12.5 µg/mL) | 16 (≈ 6.25 µg/mL) | 16 (≈ 6.25 µg/mL) | 32 (≈ 12.5 µg/mL) | >125 | >250 | >250 | 3.12 µg/mL | 1.56 µg/mL | 3.91 µg/mL | 18 | 21.2 | 8.6 | 2.7 to 5.3 | 
14 | O=C(NCc1ccccc1)Oc1ccc(Cl)cc1C(=O)Nc1ccc(Cl)cc1 | 8 (≈ 3.32 µg/mL) | 16 (≈ 6.64 µg/mL) | 16 (≈ 6.64 µg/mL) | 16 (≈ 6.64 µg/mL) | 8 (≈ 3.32 µg/mL) | 8 (≈ 3.32 µg/mL) | 16 (≈ 6.64 µg/mL) | 4 (≈ 1.66 µg/mL) | 8 (≈ 3.32 µg/mL) | 8 (≈ 3.32 µg/mL) | >125 | >250 | >250 | 1.56 µg/mL | 1.56 µg/mL | 1.56 µg/mL | 11 | > 250 | 6.4 | > 15.6 | 
